Data as given in patent US20050261264A1, “Rare-earth ternary complex” (priority 2000, published 2005).

What was measured:
Assay type in all cases: physicochemical
[1] = Miscibility with a polymer matrix, visual evaluation; set-up: key to Miscibility, PMMA: ⊚: dissolves up to 30 wt %; ◯: dissolves up to 5 wt %; Δ: disperses up to 5 wt %, but there is turbidity; X: repelled at the polymer surface
Experimental: (§1) The miscibility of the rare earth complex with various media was evaluated as follows.
2) Miscibility with a Polymer Matrix
The rare earth complex serving as the sample was added in the concentrations listed with the evaluation criteria below relative to various media, and the miscibility was visually evaluated according to the following criteria. • ⊚: dissolves up to 30 wt % • ◯: dissolves up to 5 wt % • Δ: disperses up to 5 wt %, but there is turbidity • X: repelled at the polymer surface

[2] = Miscibility with solvents, visual evaluation at 5 wt %; set-up: key: ⊚: dissolves at room temperature; ◯: dissolves when heated for 5 minutes at 40° C.; Δ: dissolves under heating, but cooling precipitates crystals; X: does not dissolve; conditions: complex added at 5 wt %
Experimental: as §1
1) Miscibility with Solvents

[3] = Number of moles of bound water per mole of complex (TG-DTA); conditions: for Bound water (number of moles of bound water per mole of complex): Table 1, dried samples for the ternary complexes
Experimental: The number of moles of bound water per mole of complex was measured using a TG-DTA 2000 from MAC Science.
A 20 g quantity of Eu(PMS)3 was added to 100 mL of isopropanol, then 43 g ([…] the molar amount of the Eu(PMS)3) of triphenylphosphine oxide (hereinafter referred to as TPPO) was added, and the system was refluxed for 3 hours, and then gradually cooled. The resulting white powder was filtered off. The white powder thus obtained was washed with hot n-hexane, and recrystallized with water-methanol to obtain 44 g of Eu(PMS)3(TPPO)8 in the form of white acicular crystals (yield: 85%). The TG-DTA was measured for these crystals, and it was found from the weight reduction at 100° C. that the number of moles of bound water per mole of complex was 2.93. The IR, NMR, UV absorption characteristics, and elemental analysis results for the obtained Eu(PMS)3(TPPO)8(H2O)2.93 are given below.
Eu(PMS)3(TPPO)8(H2O)2.93 obtained by the above synthesis method was dried in vacuo for 3 hours at 140° C. and a reduced pressure of […]. TG-DTA measurement for the resulting white powder was carried out to obtain a weight reduction at 100° C. It was found from the obtained value that the number of moles of bound water per mole of complex was 0.18.

[4] = after drying in vacuo at 140° C.
[5] = before drying (crystals as obtained), weight reduction at 100° C.

| Compound | Miscibility, Epoxy resin [1] | Miscibility, Nafion [1] | Miscibility, PMMA [1] | Miscibility, Acetone [2] | Miscibility, Chloroform [2] | Miscibility, Toluene [2] | Miscibility, Water [2] | Bound water (number of moles of bound water per mole of complex) [3] | Number of moles of bound water per mole of complex [3, 4] | Number of moles of bound water per mole of complex [3, 5] |
| --- | --- | --- | --- | --- | --- | --- | --- | --- | --- | --- |
| O=C(C=C([O-])C(F)(F)F)C(F)(F)F.O=C(C=C([O-])C(F)(F)F)C(F)(F)F.O=C(C=C([O-])C(F)(F)F)C(F)(F)F.O=P(c1ccccc1)(c1ccccc1)c1ccccc1.O=P(c1ccccc1)(c1ccccc1)c1ccccc1.[Nd+3] [Nd(HFA)3(TPPO)2, reference compound] | ◯ (dissolves up to 5 wt %) | Δ (disperses up to 5 wt %, but there is turbidity) | Δ (disperses up to 5 wt %, but there is turbidity) | ⊚ | ◯ | ◯ | X | 0.00 |  |  |
| O=C(C=C([O-])C(F)(F)F)C(F)(F)F.O=C(C=C([O-])C(F)(F)F)C(F)(F)F.O=C(C=C([O-])C(F)(F)F)C(F)(F)F.[Nd+3] [Nd(HFA)3, reference compound] | ◯ (dissolves up to 5 wt %) | Δ (disperses up to 5 wt %, but there is turbidity) | X | ⊚ | X | X | X | 2.00 |  |  |
| O=S(=O)([N-]S(=O)(=O)C(F)(F)F)C(F)(F)F.O=S(=O)([N-]S(=O)(=O)C(F)(F)F)C(F)(F)F.O=S(=O)([N-]S(=O)(=O)C(F)(F)F)C(F)(F)F.O=S(c1ccccc1)c1ccccc1.O=S(c1ccccc1)c1ccccc1.O=S(c1ccccc1)c1ccccc1.O=S(c1ccccc1)c1ccccc1.O=S(c1ccccc1)c1ccccc1.O=S(c1ccccc1)c1ccccc1.O=S(c1ccccc1)c1ccccc1.O=S(c1ccccc1)c1ccccc1.[Tb+3] [Tb(PMS)3(DPSO)8] | ◯ (dissolves up to 5 wt %) | ◯ (dissolves up to 5 wt %) | ◯ (dissolves up to 5 wt %) | ⊚ | ◯ | ◯ | X | 0.00 |  |  |
| O=P(c1ccccc1)(c1ccccc1)c1ccccc1.O=P(c1ccccc1)(c1ccccc1)c1ccccc1.O=P(c1ccccc1)(c1ccccc1)c1ccccc1.O=P(c1ccccc1)(c1ccccc1)c1ccccc1.O=P(c1ccccc1)(c1ccccc1)c1ccccc1.O=P(c1ccccc1)(c1ccccc1)c1ccccc1.O=P(c1ccccc1)(c1ccccc1)c1ccccc1.O=P(c1ccccc1)(c1ccccc1)c1ccccc1.O=S(=O)([N-]S(=O)(=O)C(F)(F)C(F)(F)F)C(F)(F)C(F)(F)F.O=S(=O)([N-]S(=O)(=O)C(F)(F)C(F)(F)F)C(F)(F)C(F)(F)F.O=S(=O)([N-]S(=O)(=O)C(F)(F)C(F)(F)F)C(F)(F)C(F)(F)F.[Eu+3] [Eu(PES)3(TPPO)8] | ◯ (dissolves up to 5 wt %) | ◯ (dissolves up to 5 wt %) | ◯ (dissolves up to 5 wt %) | ⊚ | ⊚ | ◯ | X | 0.19 | 0.19 |  |
| O=P(c1ccccc1)(c1ccccc1)c1ccccc1.O=P(c1ccccc1)(c1ccccc1)c1ccccc1.O=P(c1ccccc1)(c1ccccc1)c1ccccc1.O=P(c1ccccc1)(c1ccccc1)c1ccccc1.O=P(c1ccccc1)(c1ccccc1)c1ccccc1.O=P(c1ccccc1)(c1ccccc1)c1ccccc1.O=P(c1ccccc1)(c1ccccc1)c1ccccc1.O=P(c1ccccc1)(c1ccccc1)c1ccccc1.O=S(=O)([N-]S(=O)(=O)C(F)(F)F)C(F)(F)F.O=S(=O)([N-]S(=O)(=O)C(F)(F)F)C(F)(F)F.O=S(=O)([N-]S(=O)(=O)C(F)(F)F)C(F)(F)F.[Tb+3] [Tb(PMS)3(TPPO)8] | ◯ (dissolves up to 5 wt %) | ◯ (dissolves up to 5 wt %) | ◯ (dissolves up to 5 wt %) | ⊚ | ⊚ | ◯ | X | 0.08 | 0.08 | 1.27 |
| O=S(=O)([N-]S(=O)(=O)C(F)(F)F)C(F)(F)F.O=S(=O)([N-]S(=O)(=O)C(F)(F)F)C(F)(F)F.O=S(=O)([N-]S(=O)(=O)C(F)(F)F)C(F)(F)F.[Nd+3].c1cnc2c(c1)ccc1cccnc12.c1cnc2c(c1)ccc1cccnc12.c1cnc2c(c1)ccc1cccnc12.c1cnc2c(c1)ccc1cccnc12 [Nd(PMS)3(Phen)m] | ◯ (dissolves up to 5 wt %) | ◯ (dissolves up to 5 wt %) | ◯ (dissolves up to 5 wt %) | ⊚ | Δ | Δ | X | 0.00 |  |  |
| O=P(c1ccccc1)(c1ccccc1)c1ccccc1.O=P(c1ccccc1)(c1ccccc1)c1ccccc1.O=P(c1ccccc1)(c1ccccc1)c1ccccc1.O=P(c1ccccc1)(c1ccccc1)c1ccccc1.O=P(c1ccccc1)(c1ccccc1)c1ccccc1.O=P(c1ccccc1)(c1ccccc1)c1ccccc1.O=P(c1ccccc1)(c1ccccc1)c1ccccc1.O=P(c1ccccc1)(c1ccccc1)c1ccccc1.O=S(=O)([N-]S(=O)(=O)C(F)(F)F)C(F)(F)F.O=S(=O)([N-]S(=O)(=O)C(F)(F)F)C(F)(F)F.O=S(=O)([N-]S(=O)(=O)C(F)(F)F)C(F)(F)F.[Yb+3] [Yb(PMS)3(TPPO)8] | ◯ (dissolves up to 5 wt %) | ◯ (dissolves up to 5 wt %) | ◯ (dissolves up to 5 wt %) | ⊚ | ⊚ | ◯ | X | 0.27 | 0.27 | 1.52 |
